Measurements reported in PubChem BioAssay AID1197 (NMMLSC, 2008).
The source made the active and inactive calls. The rule behind the calls is not given here.

What follows are compounds tested on LNCaP cell loss, flow cytometry event count, 4 d (assay: cytotoxicity in LNCaP prostate cancer cells – cell-based, flow cytometry, event count, cytotoxicity control for prostate cell differentiation activator project, dose response (AID 1197)).
In the case of `N=c1n(CCN2CCCCC2)c2ccccc2n1CC(O)COc1ccccc1` (configuration not stated), the EC50 is reported as 19.2 µM (inactive). `CN1CCN(CCCNC(=O)c2cc3c(-c4ccc(Cl)cc4)nn(C)c3s2)CC1` was tested, and the EC50 was 12.6 µM (inactive). `Cc1ccccc1CS(=O)(=O)CCC(=O)NCCCN1CCN(c2ccccc2F)CC1` showed an EC50 of 6.85 µM. Work on `CCOC(=O)c1c(C)[nH]c(C(=O)COC(=O)C2CC2C)c1C` (configuration not stated) yielded an EC50 of 0.166 µM. In the case of `Cn1nc(-c2ccc(Cl)cc2)c2cc(C(=O)NCCCN3CCCC3)sc21`, the EC50 is reported as 13 µM (inactive). With `CCOC(=O)c1[nH]c(C)c(C(=O)N2CCc3ccccc32)c1C` the EC50 was 0.888 µM. In the case of `COc1ccc(-c2noc(CCC(=O)NCCCN3CCC(Cc4ccccc4)CC3)n2)cc1`, the EC50 is reported as 15.6 µM (inactive).
